Assay results reported in patent US20100004243A1, “PHARMACEUTICAL COMPOUNDS” (Astex Therapeutics Limited, priority 2006, published 2010).

Tests used:
CDK4/CyclinD1 = molecular target: T1, CDK4/CyclinD1 (Homo sapiens, UniProt P11802); experiment: CDK4 kinase inhibitory activity assay (IC50); type: biochemical; conditions: read-out: IC50 against CDK4
T1 construct: purchased Proqinase
Procedure: Assays for CDK4 inhibitory activity can be carried out using the proprietary 33 PanQinase® Activity Assay of Proqinase GmbH, Freiburg, Germany. The assays are performed in 96 well FlashPlates™ (PerkinElmer). In each case, the reaction cocktail (50 μl final volume) is composed of; 20 μl assay buffer (final composition 60 mM HEPES-NaOH, pH 7.5, 3 mM MgCl2, 3 μM Na-orthovanadate, 1.2 mM DTT, 50 μg/ml PEG2000, 5 μl ATP solution (final concentration 1 μM [γ-33P]-ATP (approx 5×10^5 cpm per well)), 5 μl test compound (in 10% DMSO), 10 μl substrate/10 μl enzyme solution (premixed). The final amounts of enzyme and substrate are as below.
The reaction cocktail is incubated at 30° C. for 80 minutes. The reaction is stopped with 50 μl of 2% H3PO4, plates are aspirated and washed twice with 200 μl 0.9% NaCl. Incorporation of ^33P is determined with a microplate scintillation counter. Background values are subtracted from the data before calculating the residual activities for each well. IC50s are calculated using Prism 3.03.
Compounds of the invention can be tested for kinase inhibitory activity using the following protocol.
CDK4/CyclinD1 (Proqinase) is diluted to 12.5 nM in 5 mM Tris pH 7.5, 2.5 mM MgCl2, 25 μM EDTA, 2.5 m M DTT and 125 μM ATP. 10 μl of the enzyme solution is mixed with 10 μl of 100 μl biotin -KAPLSPKKAK4 (Altabioscience, 1 mM stock—10 mg in 2,250 μl H20), 900 μl H2O, 1 μl 10% triton and 35 μCi γ^33P-ATP) and added to 96 well plates along with 5 μl of various dilutions of the test compound in DMSO (up to 4%). The reaction is allowed to proceed for 2 hours before being stopped with an excess of ortho-phosphoric acid (20 μl at 2%).
γ^33P-ATP which remains unincorporated into the biotin -KAPLSPKKAK4 is separated from phosphorylated biotin -KAPLSPKKAK4 on a Millipore MAPH filter plate. The wells of the MAPH plate are wetted with 0.5% orthophosphoric acid, and then the results of the reaction are filtered with a Millipore vacuum filtration unit through the wells. Following filtration, the residue is washed twice with 200 μl of 0.5% orthophosphoric acid. Once the filters have dried, 20 μl of Microscint 20 scintillant is added, and then counted on a Packard Topcount for 30 seconds.
The % inhibition of the CDK4 activity is calculated and plotted in order to determine the concentration of test compound required to inhibit 50% of the CDK4 activity (IC50).

CDK2/CyclinA = CDK2/CyclinA (Homo sapiens, UniProt P24941); experiment: Activated CDK2/CyclinA kinase inhibitory activity assay, compared with CDK4; type: biochemical
Procedure: Compounds of the invention were tested for kinase inhibitory activity using the following protocol.
Activated CDK2/CyclinA (Brown et al, Nat. Cell Biol., 1, pp 438-443, 1999; Lowe, E. D., et al Biochemistry, 41, pp 15625-15634, 2002) is diluted to 125 pM in 2.5× strength assay buffer (50 mM MOPS pH 7.2, 62.5 mM β-glycerophosphate, 12.5 mM EDTA, 37.5 mM MgCl2, […], 2.5 mM DTT, 2.5 mM sodium orthovanadate, 0.25 mg/ml bovine serum albumin), and 10 μl mixed with 10 μl of histone substrate mix (60 μl bovine histone Hi (Upstate Biotechnology, 5 mg/ml), 940 μl H2O, 35 μCi γ^33P-ATP) and added to 96 well plates along with 5 μl of various dilutions of the test compound in DMSO (up to 2.5%). The reaction is allowed to proceed for 2 to 4 hours before being stopped with an excess of orthophosphoric acid (5 μl at 2%). γ^33P-ATP which remains unincorporated into the histone H1 is separated from phosphorylated histone H1 on a Millipore MAPH filter plate. The wells of the MAPH plate are wetted with 0.5% orthophosphoric acid, and then the results of the reaction are filtered with a Millipore vacuum filtration unit through the wells. Following filtration, the residue is washed twice with 200 μl of 0.5% orthophosphoric acid. Once the filters have dried, 20 μl of Microscint 20 scintillant is added, and then counted on a Packard Topcount for 30 seconds.
The % inhibition of the CDK2 activity is calculated and plotted in order to determine the concentration of test compound required to inhibit 50% of the CDK2 activity (IC50).

T1 sequence (P11802 whole entry): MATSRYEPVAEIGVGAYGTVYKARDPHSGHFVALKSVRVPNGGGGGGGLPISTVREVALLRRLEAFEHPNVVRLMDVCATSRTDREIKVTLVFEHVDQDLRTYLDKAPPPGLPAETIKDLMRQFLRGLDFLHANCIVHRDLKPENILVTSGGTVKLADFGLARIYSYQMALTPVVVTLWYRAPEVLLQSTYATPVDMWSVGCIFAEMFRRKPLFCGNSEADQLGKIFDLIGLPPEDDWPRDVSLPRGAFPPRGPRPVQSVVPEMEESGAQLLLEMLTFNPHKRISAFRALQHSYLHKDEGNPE
T1 sequence (P24385 whole entry partner): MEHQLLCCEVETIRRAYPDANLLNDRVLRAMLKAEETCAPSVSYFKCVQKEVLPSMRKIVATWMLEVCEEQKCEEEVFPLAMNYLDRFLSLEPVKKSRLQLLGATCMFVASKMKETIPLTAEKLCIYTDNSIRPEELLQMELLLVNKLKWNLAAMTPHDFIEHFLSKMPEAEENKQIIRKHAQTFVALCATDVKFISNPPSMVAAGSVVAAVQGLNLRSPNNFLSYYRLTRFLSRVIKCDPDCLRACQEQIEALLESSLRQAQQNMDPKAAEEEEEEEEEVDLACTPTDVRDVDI

Row | SMILES | IC50 (CDK4/CyclinD1) [nM] | selectivity for CDK4 relative to CDK2 (in words) (CDK2/CyclinA)
1 | O=C(Nc1nnc(CCN2CCCCC2)s1)c1n[nH]cc1NC(=O)c1c(F)cccc1F [Example 1] | < 5000 | 
2 | CN(C)C1CCN(c2ccc(NC(=O)c3n[nH]cc3NC(=O)c3c(F)cccc3F)nc2)CC1 [Example 8] | < 100 | selective for CDK4 relative to CDK2
3 | CN(C)C1CCN(c2ccc(NC(=O)c3n[nH]cc3NC(=O)c3c(F)cccc3F)cc2)CC1 [Example 9] | < 100 | selective for CDK4 relative to CDK2

Next, values leading:

Row | IC50 (CDK4/CyclinD1) [nM] | selectivity for CDK4 relative to CDK2 (in words) (CDK2/CyclinA) | SMILES
4 | < 100 | selective for CDK4 relative to CDK2 | O=C(Nc1ccc(N2CCNCC2)cn1)c1n[nH]cc1NC(=O)c1c(Cl)cccc1Cl [Example 7]
5 | < 100 | selective for CDK4 relative to CDK2 | O=C(Nc1ccc(N2CCNCC2)cn1)c1n[nH]cc1NC(=O)c1c(F)cccc1F [Example 10]
